Results published in patent EP0197013A1, “Substituted benzimidazoles for the manufacture of a medicament for treatment of intestinal inflammatory diseases” (Aktiebolaget Hässle, priority 1985, dated 1986).

Target: T1, colon K^+-ATPase (Oryctolagus cuniculus, UniProt Q9TV52)
T1 construct: Apical brush-border membranes were prepared from rabbit descending colon epithelium; from tissue; host or cells: rabbit descending colon epithelium, apical brush-border membrane fraction (Percoll gradient)
Test: Inhibition of colon K+-ATPase by acid decomposed omeprazole (Pi liberated from ATP, apical brush-border membranes of descending colon)
Format: biochemical, rabbit
Parameters: activity of the colonic K^+-ATPase enzyme: dose or concentration left out as unconfirmed
Description: In order to evaluate the inhibitory effect on colonic K^+-ATPase of the substituted benzimidazoles with the general formula I, we have tested one compound, namely omeprazole on an enzyme preparation from the descending colon of the rabbit (cf. below).
In the case of omeprazole the most efficient way to form the active degradation products is to decompose it in acid solution. Thus, omeprazole was decomposed in acid before it was added to the enzyme.
In order to isolate and characterize the ouabain insensitive potassium- stimulated ATPase from rabbit descending colon the following preparation was made.
Apical brush-border membranes were prepared from rabbit descending colon epithelium, by the method of Gustin M.C., and Goodman D.B.P., J. Biol. Chem. 256, 10651-10656 (1981), with some modifications.
Two albino male rabbits, weighing 2-3 kg, were killed by injection of mebumal into the ear vein. A section of colon, 30-35 cm in length, measured from rectum, was removed, rinsed free of its content with icecold 0.15 M NaCl and everted over a glassrod. The tissue was then divided in two pieces. These everted segments were tied at one end, filled with an icecold buffer containing 30 mM NaCl, 5mM Na3EDTA and 8 mM Hepes/Tris pH 7.6, using a 20 ml syringe without a needle, until they became distended, at which point the other end was tied. The intestines were transferred to a 500 ml centrifuge tube containing the same cold pH 7.6 buffer. The tube was placed in an icebox, which was shaken for 2 hours at 260 osc./min. Then the incubation medium was filtered through a nylon net of 200 µm mesh, to remove debris.
Sedimentation of epithelial cells was performed by centrifugation at 500xg for 10 minutes at 4°C, in a Beckman J2-21 centrifuge. The pelleted cells were resuspended in 250 ml of a solution containing 1mM Na3EDTA, adjusted to pH 8.3 with HC1 at 4°C, just before use. The cells were then disrupted, by a 28 second homogenization in a Waring Blendor. The resulting homogenate was centrifuged for 10 minutes at 4°C with a centrifugal force of 750xg in a Beckman J2-21 centrifuge with a JA-17 rotor, in order to sediment brush-borders. Pellets were combined, resuspended in 40 ml of the medium containing 1mM Na3EDTA and recentrifuged as described above. The brush-border pellet (P2) was resuspended in 33.3 ml of the same medium, 2.7 ml density gradient medium (Percoll, Pharmacia) was added by mixing. The Percoll medium was allowed to generate a density gradient during 22 minutes at 40 OOOxg in a Beckman J2-21 centrifuge, in which the membranes sedimented into bands. Nine fractions (Gl-G9) of 4 ml each, were carefully removed from the gradient with a Pasteur-pipette. The fractions were subjected to centrifugation in a Kontron TGA-65 centrifuge with a TST 60 swing-out rotor at 50 000 rpm for 45 minutes, to sediment the Percoll. The material collected on the top of the Percoll pellet was homogenized by a glass-teflon homogenizer with 5-10 up-down strokes at about 1500 rpm.
ATPase activity was determined as the amount of Pi (free phosphate) liberated from ATP by the enzyme per unit of time.
The assay medium contained 2mM ATP, 2mM MgCl2, 18.4 mM Pipes/Tris pH 7.4 and membrane protein in the presence or absence of 10 mM KC1 in a final volume of 1 ml. In some experiments, 10^-5 M of the specific Na^+,K^+-ATPase inhibitor ouabain was present. The enzyme Na^+,K^+-ATPase is responsible for the active transport of Na^+ out from the cell into the plasma as well as for the transport of K^+ into the cell from the plasma. Unless otherwise mentioned, the preparation was preincubated with ouabain on ice for 10 minutes before start of the reaction, which was initiated with ATP, mixed and incubated for suitable time at 37°C. The reaction was stopped by the addition of 1 ml icecold 12 per cent perchloric acid, containing 3.6 per cent ammoniummolybdate. […]

T1 sequence (Q9TV52 whole entry, other chains not shown): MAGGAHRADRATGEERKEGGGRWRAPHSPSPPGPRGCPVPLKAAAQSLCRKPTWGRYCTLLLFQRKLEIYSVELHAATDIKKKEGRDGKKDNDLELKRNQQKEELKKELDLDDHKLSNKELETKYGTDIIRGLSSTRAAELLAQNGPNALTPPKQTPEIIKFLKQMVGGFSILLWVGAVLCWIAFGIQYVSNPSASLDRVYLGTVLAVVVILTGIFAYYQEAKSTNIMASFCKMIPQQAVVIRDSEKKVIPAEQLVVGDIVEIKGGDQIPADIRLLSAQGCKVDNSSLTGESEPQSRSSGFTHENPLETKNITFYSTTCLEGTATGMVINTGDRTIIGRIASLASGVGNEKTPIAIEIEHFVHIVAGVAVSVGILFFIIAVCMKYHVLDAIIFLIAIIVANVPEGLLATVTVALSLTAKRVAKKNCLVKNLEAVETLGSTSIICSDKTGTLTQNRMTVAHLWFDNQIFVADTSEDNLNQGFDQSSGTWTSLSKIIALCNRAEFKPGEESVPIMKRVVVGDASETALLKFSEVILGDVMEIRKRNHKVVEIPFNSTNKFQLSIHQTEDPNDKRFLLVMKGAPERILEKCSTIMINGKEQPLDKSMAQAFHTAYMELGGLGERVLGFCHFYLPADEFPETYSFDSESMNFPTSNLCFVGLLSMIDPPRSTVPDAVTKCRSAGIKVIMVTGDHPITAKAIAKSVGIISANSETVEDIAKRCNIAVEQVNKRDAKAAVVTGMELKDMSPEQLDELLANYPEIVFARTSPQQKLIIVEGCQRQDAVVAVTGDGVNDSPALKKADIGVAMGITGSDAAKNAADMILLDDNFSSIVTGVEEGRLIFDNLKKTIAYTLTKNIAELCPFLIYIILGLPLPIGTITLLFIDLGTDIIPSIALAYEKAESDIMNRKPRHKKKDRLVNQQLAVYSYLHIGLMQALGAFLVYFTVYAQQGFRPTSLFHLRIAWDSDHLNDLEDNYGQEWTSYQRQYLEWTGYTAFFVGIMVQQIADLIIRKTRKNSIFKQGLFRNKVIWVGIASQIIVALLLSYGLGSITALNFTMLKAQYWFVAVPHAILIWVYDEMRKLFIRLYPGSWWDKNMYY

**Q.** For `COc1ccc2[nH]c([S+]([O-])Cc3ncc(C)c(OC)c3C)nc2c1` (stereo not drawn) [omeprazole], which remaining activity at 1 µM (Initial concentration of omeprazole in the break-down mixture 1.0 µM, omeprazole decomposed at pH 5.0, 120 minutes, 37°C, membranes incubated 10 minutes at 37°C, read-out: Remaining enzyme activity % Mean value ± S.D.) is on record?
**A.** 100 ± 5.9%

**Q.** And the remaining activity at 2.5 µM (Initial concentration of omeprazole in the break-down mixture 2.5 µM, omeprazole decomposed at pH 5.0, 120 minutes, 37°C, membranes incubated 10 minutes at 37°C, read-out: Remaining enzyme activity % Mean value ± S.D.)?
**A.** 72.4 ± 6%

**Q.** And the remaining activity at 5 µM (Initial concentration of omeprazole in the break-down mixture 5.0 µM, omeprazole decomposed at pH 5.0, 120 minutes, 37°C, membranes incubated 10 minutes at 37°C, read-out: Remaining enzyme activity % Mean value ± S.D.)?
**A.** 31.9 ± 6.7%

**Q.** And the remaining activity at 7.5 µM (Initial concentration of omeprazole in the break-down mixture 7.5 µM, omeprazole decomposed at pH 5.0, 120 minutes, 37°C, membranes incubated 10 minutes at 37°C, read-out: Remaining enzyme activity % Mean value ± S.D.)?
**A.** 18.6 ± 5.5%

**Q.** And the remaining activity at 10 µM (Initial concentration of omeprazole in the break-down mixture 10.0 µM, omeprazole decomposed at pH 5.0, 120 minutes, 37°C, membranes incubated 10 minutes at 37°C, read-out: Remaining enzyme activity % Mean value ± S.D.)?
**A.** 5.2 ± 3.2%

**Q.** What about the “activity of the colonic K^+-ATPase enzyme” value (mixture (acid decomposed omeprazole)) of the same molecule?
**A.** almost completely inhibits
